# Numbered stars: 1 amine (or outer) side, 2 acyl side, 3 side chain; on linkers, the order of the positions; unused ones are H or OH. Bridge positions count the residues as written; N and C are the ends. Square brackets hold non-standard residues; d marks the D form. Peptide text beside a SMILES is read from it. * marks the point of attachment. C20 diacid = O=C(O)CCCCCCCCCCCCCCCCCCC(=O)*; γGlu = O=C(O)[C@H](CCC(=O)[*:2])N[*:1]; Hyp = O=C(O)[C@@H]1C[C@@H](O)CN1; NMeI = CC[C@H](C)[C@H](NC)C(=O)O; Sar = CNCC(=O)O
# What was measured:
# [1] = Solubility assessment (turbidity absorbance at 325 nm); format: physicochemical; conditions: stock 2 mg/ml diluted 1:1, ambient temperature (typically 25°C), n=1
# Summary of the method: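 Peptide stock (2 mg/ml) in water acidified to pH 2.5 with HCl was diluted 1:1 into 100 mM acetate (pH 4.0, 5.0), histidine (pH 6.0, 7.0) or phosphate (pH 6.0, 7.0, 7.5) buffer. A280 and A325 were read at about 25°C, n=1. A325 ≤ 0.02 meant solubility ≥ 1 mg/ml.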
# [2] = molecular target: T1, human calcitonin receptor (hCTR2) (Homo sapiens, UniProt P30988); test: hCTR2 assay: induction of cAMP (AlphaScreen cAMP Assay kit) in COS7 cells expressing hCTR2; format: cell-based; conditions: cAMP induction in COS7 cells expressing hCTR2; average of a minimum of 3 determinations; read-out: hCTR2 EC50
# T1 construct: expressed in transfected cells
# T1 sequence (P30988 25-474): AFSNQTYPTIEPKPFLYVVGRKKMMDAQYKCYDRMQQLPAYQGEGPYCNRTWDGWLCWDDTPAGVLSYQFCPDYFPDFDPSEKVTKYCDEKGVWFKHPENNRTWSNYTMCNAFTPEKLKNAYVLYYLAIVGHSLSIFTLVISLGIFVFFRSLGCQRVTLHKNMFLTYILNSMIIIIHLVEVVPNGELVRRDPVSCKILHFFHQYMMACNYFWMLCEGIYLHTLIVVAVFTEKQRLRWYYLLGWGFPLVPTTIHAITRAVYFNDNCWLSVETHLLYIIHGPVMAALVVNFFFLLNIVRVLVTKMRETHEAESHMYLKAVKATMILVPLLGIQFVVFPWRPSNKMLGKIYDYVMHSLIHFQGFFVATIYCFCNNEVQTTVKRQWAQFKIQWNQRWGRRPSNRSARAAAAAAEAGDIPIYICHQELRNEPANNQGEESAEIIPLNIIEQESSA
# Summary of the method: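 Functional agonism is measured as cAMP accumulation in a COS7 line stably transfected with hCTR2, lacking endogenous RAMPs. Peptides act for 15 min at 37° C with IBMX present, and curves are fitted with a 4-parameter logistic model.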
# [3] = molecular target: T2, human amylin receptor 3 (hAMYR3) consisting of hCTR2 co-expressed with human Receptor Activity Modifying Protein 3 (hRAMP3) (Homo sapiens, UniProt O60896+P30988); test: hAMYR3 assay: induction of cAMP (AlphaScreen cAMP Assay kit) in COS7 cells expressing hAMYR3; format: cell-based; conditions: cAMP induction in COS7 cells expressing hAMYR3; average of a minimum of 3 determinations; read-out: hAMY R3 EC50
# T2 construct: expressed in transfected cells
# T2 sequence (P30988 25-474): T1 sequence (P30988 25-474)
# T2 sequence (O60896 24-148 partner): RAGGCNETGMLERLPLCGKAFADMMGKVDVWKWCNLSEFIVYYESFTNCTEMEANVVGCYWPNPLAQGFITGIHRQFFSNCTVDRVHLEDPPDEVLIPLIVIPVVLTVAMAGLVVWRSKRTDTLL
# Summary of the method: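 Stable COS7 clone co-expressing hCTR2 and hRAMP3, stimulated 15 min at 37° C with increasing peptide in Tyrode buffer pH 7.4 with 100 µM IBMX and 0.1% casein. cAMP measured by AlphaScreen after lysis; EC50 and % efficacy versus pramlintide from 4PL fit.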
"Solubility, Acetate buffer pH 4 ([1]; 100 mM acetate buffer pH 4.0)","Solubility, Acetate buffer pH 5 ([1]; 100 mM acetate buffer pH 5.0)","Solubility, Histidine buffer pH 6 ([1]; 100 mM histidine buffer pH 6.0)","Solubility, Histidine buffer pH 7 ([1]; 100 mM histidine buffer pH 7.0)","Solubility, Phosphate buffer pH 6 ([1]; 100 mM phosphate buffer pH 6.0)","Solubility, Phosphate buffer pH 7 ([1]; 100 mM phosphate buffer pH 7.0)","Solubility, Phosphate buffer pH 7.5 ([1]; 100 mM phosphate buffer pH7.5)",EC50 [2] [pM],EC50 [3] [pM],SMILES
SS (SS indicates solubility ≥ 1mg/ml),II (II indicates solubility ≤ 1 mg/ml),II (II indicates solubility ≤ 1 mg/ml),SS (SS indicates solubility ≥ 1mg/ml),II (II indicates solubility ≤ 1 mg/ml),SS (SS indicates solubility ≥ 1mg/ml),SS (SS indicates solubility ≥ 1mg/ml),170,240,"CC[C@H](C)[C@@H](C(=O)N[C@@H](CC(C)C)C(=O)N[C@@H](CO)C(=O)N[C@@H](CO)C(=O)N[C@H](C(=O)N[C@@H](CCC(=O)O)C(=O)N[C@H](C(=O)NCC(=O)N[C@@H](CO)C(=O)N[C@@H](CCC(=O)O)C(=O)N[C@H](C(=O)N1CCC[C@H]1C(N)=O)[C@@H](C)O)C(C)C)[C@@H](C)O)N(C)C(=O)CN(C)C(=O)[C@H](Cc1ccccc1)NC(=O)[C@H](CO)NC(=O)[C@H](CO)NC(=O)[C@H](CO)NC(=O)[C@H](CO)NC(=O)[C@H](CCCNC(=N)N)NC(=O)[C@H](Cc1c[nH]cn1)NC(=O)[C@H](CC(C)C)NC(=O)[C@H](Cc1ccccc1)NC(=O)[C@H](CCC(=O)O)NC(=O)[C@H](C)NC(=O)[C@H](CC(C)C)NC(=O)[C@H](CCCNC(=N)N)NC(=O)[C@H](CCC(N)=O)NC(=O)[C@@H](NC(=O)[C@H](C)NC(=O)[C@@H]1CSSC[C@H](NC(=O)[C@H](CCCNC(=N)N)NC(=O)CC[C@H](NC(=O)CCCCCCCCCCCCCCCCCCC(=O)O)C(=O)O)C(=O)N[C@@H](CC(N)=O)C(=O)N[C@@H]([C@@H](C)O)C(=O)N[C@@H](C)C(=O)N[C@@H]([C@@H](C)O)C(=O)N1)[C@@H](C)O [Compound 77, [19CD]-isoGlu-RC()NTATC()ATQRLAEFLHRSSSSF-Gly(Me)-Ile(Me)-LSSTEVGSETP-NH2] ({C20 diacid-γGlu}-RCNTATCATQRLAEFLHRSSSSF[Sar][NMeI]LSSTEVGSETP-NH2; disulfide 2-7)"
–,–,–,–,–,–,–,650,570,"CC[C@H](C)[C@@H](C(=O)N[C@@H](CC(C)C)C(=O)N[C@@H](CO)C(=O)N[C@@H](CO)C(=O)N[C@H](C(=O)N[C@@H](CCC(=O)O)C(=O)N[C@H](C(=O)NCC(=O)N[C@@H](CO)C(=O)N[C@@H](CCC(=O)O)C(=O)N[C@H](C(=O)N1C[C@H](O)C[C@H]1C(N)=O)[C@@H](C)O)C(C)C)[C@@H](C)O)N(C)C(=O)[C@H](C)NC(=O)CN(C)C(=O)[C@H](Cc1ccccc1)NC(=O)[C@H](CO)NC(=O)[C@H](CO)NC(=O)[C@H](CO)NC(=O)[C@H](CO)NC(=O)[C@H](CCCNC(=N)N)NC(=O)[C@H](Cc1c[nH]cn1)NC(=O)[C@H](CC(C)C)NC(=O)[C@H](Cc1ccccc1)NC(=O)[C@H](CCC(=O)O)NC(=O)[C@H](C)NC(=O)[C@H](CC(C)C)NC(=O)[C@H](CCCNC(=N)N)NC(=O)[C@H](CCC(=O)O)NC(=O)[C@@H](NC(=O)[C@H](C)NC(=O)[C@@H]1CSSC[C@H](NC(=O)[C@H](CCCNC(=N)N)NC(=O)CC[C@H](NC(=O)CCCCCCCCCCCCCCCCCCC(=O)O)C(=O)O)C(=O)N[C@@H](CCC(=O)O)C(=O)N[C@@H]([C@@H](C)O)C(=O)N[C@@H](C)C(=O)N[C@@H]([C@@H](C)O)C(=O)N1)[C@@H](C)O [Compound 170, [19CD]-isoGlu-RC()ETATC()ATERLAEFLHRSSSSF-Gly(Me)-A-Ile(Me)-LSSTEVGSET-Hyp-NH2] ({C20 diacid-γGlu}-RCETATCATERLAEFLHRSSSSF[Sar]A[NMeI]LSSTEVGSET[Hyp]-NH2; disulfide 2-7)"
–,–,–,–,–,–,–,840,540,"CC[C@H](C)[C@@H](C(=O)N[C@@H](CC(C)C)C(=O)N[C@@H](CO)C(=O)N[C@@H](CO)C(=O)N[C@H](C(=O)N[C@@H](CCC(=O)O)C(=O)N[C@H](C(=O)NCC(=O)N[C@@H](CO)C(=O)N[C@@H](CCC(=O)O)C(=O)N[C@H](C(=O)N1C[C@H](O)C[C@H]1C(N)=O)[C@@H](C)O)C(C)C)[C@@H](C)O)N(C)C(=O)CN(C)C(=O)[C@H](Cc1ccccc1)NC(=O)[C@H](CO)NC(=O)[C@H](CO)NC(=O)[C@H](CO)NC(=O)[C@H](CO)NC(=O)[C@H](CCCNC(=N)N)NC(=O)[C@H](Cc1c[nH]cn1)NC(=O)[C@H](CC(C)C)NC(=O)[C@H](Cc1ccccc1)NC(=O)[C@H](CCC(=O)O)NC(=O)[C@H](C)NC(=O)[C@H](CC(C)C)NC(=O)[C@H](CCCNC(=N)N)NC(=O)[C@H](CCC(=O)O)NC(=O)[C@@H](NC(=O)[C@H](C)NC(=O)[C@@H]1CSSC[C@H](NC(=O)[C@H](CCCNC(=N)N)NC(=O)CC[C@H](NC(=O)CCCCCCCCCCCCCCCCCCC(=O)O)C(=O)O)C(=O)N[C@@H](CCC(=O)O)C(=O)N[C@@H]([C@@H](C)O)C(=O)N[C@@H](C)C(=O)N[C@@H]([C@@H](C)O)C(=O)N1)[C@@H](C)O [Compound 171, [19CD]-isoGlu-RC()ETATC()ATERLAEFLHRSSSSF-Gly(Me)-Ile(Me)-LSSTEVGSET-Hyp-NH2] ({C20 diacid-γGlu}-RCETATCATERLAEFLHRSSSSF[Sar][NMeI]LSSTEVGSET[Hyp]-NH2; disulfide 2-7)"
–,–,–,–,–,–,–,62,140,"CC[C@H](C)[C@@H](C(=O)N[C@@H](CC(C)C)C(=O)N[C@@H](CO)C(=O)N[C@@H](CO)C(=O)N[C@H](C(=O)N[C@@H](CC(=O)O)C(=O)N[C@H](C(=O)NCC(=O)N[C@@H](CO)C(=O)N[C@@H](CC(=O)O)C(=O)N[C@H](C(=O)N1CCC[C@H]1C(N)=O)[C@@H](C)O)C(C)C)[C@@H](C)O)N(C)C(=O)[C@H](C)NC(=O)CN(C)C(=O)[C@H](Cc1ccccc1)NC(=O)[C@H](CO)NC(=O)[C@H](CO)NC(=O)[C@H](CO)NC(=O)[C@H](CO)NC(=O)[C@H](CCCNC(=N)N)NC(=O)[C@H](Cc1c[nH]cn1)NC(=O)[C@H](CC(C)C)NC(=O)[C@H](Cc1ccccc1)NC(=O)[C@H](CCC(=O)O)NC(=O)[C@H](C)NC(=O)[C@H](CC(C)C)NC(=O)[C@H](CCCNC(=N)N)NC(=O)[C@H](CCC(=O)O)NC(=O)[C@@H](NC(=O)[C@H](C)NC(=O)[C@@H]1CSSC[C@H](NC(=O)[C@H](CCCNC(=N)N)NC(=O)CC[C@H](NC(=O)CCCCCCCCCCCCCCCCCCC(=O)O)C(=O)O)C(=O)N2CCC[C@H]2C(=O)N[C@@H]([C@@H](C)O)C(=O)N[C@@H](C)C(=O)N[C@@H]([C@@H](C)O)C(=O)N1)[C@@H](C)O [Compound 173, [19CD]-isoGlu-RC()PTATC()ATERLAEFLHRSSSSF-Gly(Me)-A-Ile(Me)-LSSTDVGSDTP-NH2] ({C20 diacid-γGlu}-RCPTATCATERLAEFLHRSSSSF[Sar]A[NMeI]LSSTDVGSDTP-NH2; disulfide 2-7)"

# Source: patent EP3046573B1, “AMYLIN ANALOGUES” (Zealand Pharma A/S, priority 2013, dated 2015)
